Assay results: US10239825B2, “Ketamine derivatives” (Auckland Uniservices Limited, priority 2013, dated 2019)

What was measured:
[1] = test system: adult female Sprague-Dawley rats; assay: rat infusion study: loss/recovery of righting reflex and walk (anaesthetic effect); type: in vivo; conditions: exploratory, mostly single-animal evaluations
[2] = test system: adult female Sprague-Dawley rats; assay: as above; type: in vivo; conditions: for minimal effective dose: Rattus norvegicus, iv, total drug administered to achieve loss of righting reflex, i.v. infusion, read-out: LRR Dose; for potency (in words) / recovery (in words): rat infusion study, discussion; for LRR Dose, head-to-head ratio to ketamine / LRR Time, head-to-head ratio to ketamine / Walk Time, head-to-head ratio to ketamine / RRR Time, head-to-head ratio to ketamine: ratio compound/ketamine; for Walk Time: time from end of infusion to independent locomotion; for RRR Time: time from end of infusion to recovery of righting reflex; for LRR Time: time from onset of i.v. infusion to loss of righting reflex, 20 mg/kg/min initially
Protocol: (§1) All animal experiments were conducted at the Ruakura Research Centre, Hamilton, New Zealand, using experimental protocols reviewed and approved by the Ruakura Animal Ethics Committee (ethics ref 12604).
(§2) Following acquisition of baseline physiologic parameters (heart rate, respiratory rate, PWR, and righting reflex (RR)) adult female Sprague-Dawley rats of approximately 350-450 g were put under non-traumatic restraint and the marginal vein of the tail was cannulated. Ketamine or a compound of the invention at 10 mg/ml was administered via a minibore extension tube adequately secured to the tail. Infusions were commenced at a rate (weight-adjusted) to deliver 20 mg/kg/min initially (until the pedal withdrawal reflex score PWR=1), then were reduced to a rate of 6.7 mg/kg/min. Infusion rate was then titrated in an up-and-down fashion to maintain dorsal recumbency and a PWR=1 to 10 minutes before cessation. Three rats were used in each study, with each group of rats also acting as their own ketamine control. The order of study drug administration was determined by prior odds/evens randomisation with a recovery interval of at least one hour afforded between experiments. PWR and RR were recorded at 1 minute intervals throughout. The times from cessation of infusion to return of righting reflex (RRR), and from cessation of infusion to the animals displaying independent locomotion (walk) were recorded.
Loss of Righting Reflex (LRR):
This is primarily used to assess anaesthetic hypnotic effect. Righting reflex is judged absent when the rat fails to right from a position of dorsal recumbency to a position of sternal recumbency on three attempts performed in rapid succession. Dose to LRR is termed effective potency.

[3] = test system: adult female Sprague-Dawley rats; assay: rat infusion study: pedal withdrawal reflex PWR = 1 (analgesic effect); type: in vivo; conditions: for minimal effective dose: Rattus norvegicus, iv, total drug administered to achieve PWR = 1, i.v. infusion; for PWR = 1 Dose, head-to-head ratio to ketamine / PWR = 1 Time, head-to-head ratio to ketamine: ratio compound/ketamine; for PWR = 1 Time: time from onset of i.v. infusion to PWR = 1
Protocol: as §1, §2
Pedal Withdrawal Reflex (PWR) Scoring:
Nociceptive testing in animals was conducted via 1 second application of constant pressure (firm digital pressure) over the forepaw of the animal. Pedal withdrawal reflex testing is primarily used to assess analgesic effect, and responses are graded accordingly: 0, absent; 1, flicker; 2, moderate withdrawal; 3, fast withdrawal; 4, Fast withdrawal with cry/preceding apnoea (modified from Buitrago, S. et al. J. Amer. Assoc. Lab. Animal. Sci. 2008, 47, 11-17).

[4] = pharmacological, analgesic and anaesthetic properties; cited from earlier work

| SMILES | sedative effect (in words) [1] | minimal effective dose [2] [mg/kg] | potency (in words) [2] | LRR Dose, head-to-head ratio to ketamine [2] | LRR Time, head-to-head ratio to ketamine [2] | Walk Time, head-to-head ratio to ketamine [2] | Walk Time [2] [s] | RRR Time [2] [s] | LRR Time [2] [s] | minimal effective dose [3] [mg/kg] | PWR = 1 Dose, head-to-head ratio to ketamine [3] | PWR = 1 Time, head-to-head ratio to ketamine [3] | PWR = 1 Time [3] [s] | potency relative to the racemate [4] | melting point [°C] | RRR Time, head-to-head ratio to ketamine [2] | recovery (in words) [2] |
| --- | --- | --- | --- | --- | --- | --- | --- | --- | --- | --- | --- | --- | --- | --- | --- | --- | --- |
| COC(=O)CCCCN(C)C1(c2ccccc2Cl)CCCCC1=O (centres unmarked) [compound 21, Methyl 5-((1-(2-chlorophenyl)-2-oxocyclohexyl)(methyl)amino)pentanoate] | weak sedative activity | 145 | less potent | 7.25 | 7.37 | 0.09 | 201 | 0 | 420 | 148 | 5.29 | 5.30 | 435 | – | – | – | – |
| CN[C@]1(c2ccccc2Cl)CCCCC1=O [(S)-Ketamine] | – | – | – | – | – | – | – | – | – | – | – | – | – | about twice as potent | – | – | – |
| CCOC(=O)CCCCNC1(c2ccccc2Cl)CCCCC1=O.Cl (racemic) [rac-C4Et, Rac-Ethyl 5-((1-(2-chlorophenyl)-2-oxocyclohexyl)amino)pentanoate hydrochloride] | – | 34 ± 4 | – | 2.00 | 1.73 | 0.05 | 158 ± 22 | 134 ± 22 | 97 ± 8 | 57 ± 12 | 2.48 | 2.26 | 172 ± 36 | – | 169 to 172 | 0.09 | – |
| CCOC(=O)CCNC1(c2ccccc2Cl)CCCCC1=O.Cl (racemic) [rac-C2Et, Ethyl 3-((1-(2-chlorophenyl)-2-oxocyclohexyl)amino)propanoate Hydrochloride] | – | 48 ± 23 | – | 1.78 | 1.75 | 0.10 | 253 ± 68 | 177 ± 51 | 135 ± 61 | 55 ± 25 | 1.45 | 1.62 | 154 ± 68 | – | 199 to 202 | 0.11 | – |
| CC(C)OC(=O)CCCCNC1(c2ccccc2Cl)CCCCC1=O.Cl (racemic) [rac-C4iPr, Isopropyl 5-((1-(2-chlorophenyl)-2-oxocyclohexyl)amino)pentanoate Hydrochloride] | – | 38 | – | 2.00 | 2.26 | 1.17 | 320 | 180 | 122 | 38 | 1.73 | 1.85 | 122 | – | 161 to 163 | 1.78 | – |
| CCOC(=O)CCCNC1(c2ccccc2Cl)CCCCC1=O.Cl (racemic) [rac-C3Et, Ethyl 4-((1-(2-chlorophenyl)-2-oxocyclohexyl)amino)butanoate Hydrochloride] | – | 24 ± 2 | – | 1.41 | 1.19 | 0.08 | 170 ± 17 | 95 ± 12 | 70 ± 6 | 44 ± 5 | 1.83 | 1.80 | 137 ± 14 | – | 186 to 189 | 0.062 | – |
| CC(C)OC(=O)CCN[C@]1(c2ccccc2Cl)CCCCC1=O.Cl [(S)-C2iPr, (S)-Isopropyl 3-((1-(2-chlorophenyl)-2-oxocyclohexyl)amino)propanoate hydrochloride] | – | 74 ± 9 | only half as potent | 2.46 | 3.41 | 0.19 | 224 ± 90 | 15 ± 15 | 222 ± 18 | 84 ± 4 | 2.47 | 3.14 | 247 ± 13 | – | 208 to 211 | 0.02 | faster recoveries than the corresponding racemates |
| CC(C)OC(=O)CCNC1(c2ccccc2Cl)CCCCC1=O.Cl (racemic) [rac-C2iPr, Iso-Propyl 3-((1-(2-chlorophenyl)-2-oxocyclohexyl)amino)propanoate Hydrochloride] | – | 33 ± 6 | – | 1.50 | 1.66 | 0.14 | 153 ± 33 | 83 ± 19 | 103 ± 17 | 37 ± 6 | 1.54 | 1.79 | 127 ± 13 | – | 203 to 205 | 0.11 | – |
| CCOC(=O)CCN(C)C1(c2ccccc2Cl)CCCCC1=O (centres unmarked) [compound 19, Ethyl 3-((1-(2-chlorophenyl)-2-oxocyclohexyl)(methyl)amino)propanoate] | very weak sedative effect | 95 | about as potent as the n-Pr norketamine esters | 4.50 | 4.67 | – | 0 | 0 | 280 | 99 | 3.96 | 4.20 | 290 | – | – | – | very rapid recovery |
| CCOC(=O)CCCN(C)C1(c2ccccc2Cl)CCCCC1=O.Cl (centres unmarked) [compound 20, Ethyl 4-((1-(2-chlorophenyl)-2-oxocyclohexyl)(methyl)amino)butanoate Hydrochloride] | weak sedative activity | 196 | less potent | 7.84 | 8.00 | – | 0 | 0 | 600 | 196 | 6.76 | 6.98 | 600 | – | – | – | – |
